Data on 31 compounds can be found in patent US10759783B2, “Biaryl inhibitors of Bruton'S tyrosine kinase” (BIOGEN MA INC., priority 2013, dated 2020).

Molecules are shown by their SMILES.

This test deals with T1, BTK enzyme (Homo sapiens, UniProt Q06187).
T1 construct: purchased Upstate 14-552
T1 sequence (Q06187 whole entry): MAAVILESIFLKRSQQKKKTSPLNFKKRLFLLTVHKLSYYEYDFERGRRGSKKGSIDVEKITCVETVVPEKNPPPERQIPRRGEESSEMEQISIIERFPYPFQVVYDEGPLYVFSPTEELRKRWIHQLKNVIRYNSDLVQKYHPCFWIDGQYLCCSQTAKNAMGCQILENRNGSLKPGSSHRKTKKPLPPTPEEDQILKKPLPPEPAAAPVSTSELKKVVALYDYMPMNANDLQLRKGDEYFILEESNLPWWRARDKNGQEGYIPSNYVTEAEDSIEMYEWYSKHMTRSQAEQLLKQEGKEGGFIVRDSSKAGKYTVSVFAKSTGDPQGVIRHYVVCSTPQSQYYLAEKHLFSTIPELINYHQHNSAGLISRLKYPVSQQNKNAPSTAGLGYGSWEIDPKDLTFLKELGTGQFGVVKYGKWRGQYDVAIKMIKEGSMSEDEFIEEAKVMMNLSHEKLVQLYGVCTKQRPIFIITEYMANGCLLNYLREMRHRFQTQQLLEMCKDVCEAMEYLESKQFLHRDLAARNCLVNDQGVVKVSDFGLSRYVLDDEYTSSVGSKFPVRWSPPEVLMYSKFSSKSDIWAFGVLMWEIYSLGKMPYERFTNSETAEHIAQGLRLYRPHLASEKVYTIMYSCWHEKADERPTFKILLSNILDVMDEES
Briefly: In vitro BTK kinase assay: BTK-POLYGAT-LS assay. The test is classed as biochemical. The following applies: ATP 10 μM, read-out: IC50 (10uMATP). The protocol:
The purpose of the BTK in vitro assay is to determine compound potency against BTK through the measurement of IC50. […] For a typical assay, a 24 μL aliquot of a ATP/peptide master mix (final concentration; ATP 10 μM, polyGAT 100 nM) in kinase buffer (10 mM Tris-HCl pH 7.5, 10 mM MgCl2, 200 μM Na3PO4, 5 mM DTT, 0.01% Triton X-100, and 0.2 mg/ml casein) is added to each well. […] The assay is incubated for 30 minutes before being stopped with 28 μL of a 50 mM EDTA solution. […] The plate is covered and incubated for 45 minutes at room temperature.
What is called IC50 is the concentration at which inhibition is half-maximal. Regarding `Cc1cc(-c2ccnc(N)n2)ccc1CNC(=O)c1cnn(C)c1` [Example I-80, N-(4-(2-aminopyrimidin-4-yl)-2-methylbenzyl)-1-methyl-1H-pyrazole-4-carboxamide], the IC50 was in the range of 1 to 10 µM.
With `Cc1cc(-c2ccnc(Nc3cnn(C[C@@H](N)CO)c3)n2)ccc1CNC(=O)c1cnc(C(C)(C)C)s1` [Example I-133, (R)—N-(4-(2-((1-(2-amino-3-hydroxypropyl)-1H-pyrazol-4-yl)amino)pyrimidin-4-yl)-2-methylbenzyl)-2-(tert-butyl)thiazole-5-carboxamide] the figure was < 0.01 µM; with `Cc1cc(-c2ccnc(Nc3cnn(C)c3)n2)ccc1CNC(=O)c1cnn(C(C)(C)C)c1` [Example I-154, 1-(tert-butyl)-N-(2-methyl-4-(2-((1-methyl-1H-pyrazol-4-yl)amino)pyrimidin-4-yl)benzyl)-1H-pyrazole-4-carboxamide], < 0.01 µM; with `Cc1cc(-c2ccnc(Nc3conc3C)n2)ccc1CNC(=O)c1cnc(C(C)(C)C)s1` [Example I-57, 2-(tert-butyl)-N-(2-methyl-4-(2-((3-methylisoxazol-4-yl)amino)pyrimidin-4-yl)benzyl)thiazole-5-carboxamide], < 0.01 µM.
Regarding `Cc1cc(-c2cc(Nc3cc4n(n3)CCCN(C(=O)OC(C)(C)C)C4)ncn2)ccc1CNC(=O)c1cnc(C(C)(C)C)s1` [Example I-149, tert-butyl 2-((6-(4-((2-(tert-butyl)thiazole-5-carboxamido)methyl)-3-methylphenyl)pyrimidin-4-yl)amino)-7,8-dihydro-4H-pyrazolo[1,5-a][1,4]diazepine-5(6H)-carboxylate], the IC50 was < 0.01 µM.
With `Cc1cc(-c2ccnc(NCc3ccncc3)n2)ccc1CNC(=O)c1cnc(C(C)(C)C)s1` [Example I-32, 2-(tert-butyl)-N-(2-methyl-4-(2-((pyridin-4-ylmethyl)amino)pyrimidin-4-yl)benzyl)thiazole-5-carboxamide] the figure was 0.1 to 0.999 µM; with `Cc1cc(-c2ccnc(Nc3cnn(C)c3)n2)ccc1CNC(=O)c1cccn1C` [Example I-158, 1-Methyl-N-(2-methyl-4-(2-((1-methyl-1H-pyrazol-4-yl)amino)pyrimidin-4-yl)benzyl)-1H-pyrrole-2-carboxamide], 0.1 to 0.999 µM.
With `Cc1cc(-c2ccnc(N)n2)ccc1CNC(=O)c1cn2c(n1)CNCC2` [Example I-74, N-(4-(2-aminopyrimidin-4-yl)-2-methylbenzyl)-5,6,7,8-tetrahydroimidazo[1,2-a]pyrazine-2-carboxamide] the figure was 1 to 10 µM; with `Cn1cc(Nc2nccc(-c3ccc4c(c3)OCCC4NC(=O)c3cnc(C(C)(C)C)s3)n2)cn1` (stereo not shown) [Example I-97, 2-(tert-butyl)-N-(7-(2-((1-methyl-1H-pyrazol-4-yl)amino)pyrimidin-4-yl)chroman-4-yl)thiazole-5-carboxamide], < 0.01 µM.
The same measure for `Cc1cc(-c2ccnc(Nc3cnn(C)c3)n2)ccc1CNC(=O)c1cnn(C)c1` [Example I-157, 1-Methyl-N-(2-methyl-4-(2-((1-methyl-1H-pyrazol-4-yl)amino)pyrimidin-4-yl)benzyl)-1H-pyrazole-4-carboxamide]: 0.01 to 0.099 µM; for `Cc1cc(-c2ccnc(Nc3cnn(C)c3)n2)ccc1CNC(=O)[C@H]1CC[C@H](C(F)(F)F)CC1` [Example I-11, trans-N-(2-methyl-4-(2-((1-methyl-1H-pyrazol-4-yl)amino)pyrimidin-4-yl)benzyl)-4-(trifluoromethyl)cyclohexanecarboxamide]: 0.01 to 0.099 µM; for `Cc1cc(-c2ccnc(Nc3cn(C)nn3)n2)ccc1CNC(=O)c1cnc(C(C)(C)C)s1` [Example I-58, 2-(tert-butyl)-N-(2-methyl-4-(2-((1-methyl-1H-1,2,3-triazol-4-yl)amino)pyrimidin-4-yl)benzyl)thiazole-5-carboxamide]: 0.01 to 0.099 µM.
Consider `C=CC(=O)N(C)Cc1cc(-c2ccnc(N)n2)ccc1CNC(=O)c1cc2c(s1)CCCC2` [Example I-146, N-(4-(2-aminopyrimidin-4-yl)-2-((N-methylacrylamido)methyl)benzyl)-4,5,6,7-tetrahydrobenzo[b]thiophene-2-carboxamide], for which the IC50 was in the range of 0.1 to 0.999 µM.
The same measure for `Cc1nc(-c2ccnc(Nc3cnn(C)c3)n2)ccc1CNC(=O)c1cnc(C(C)(C)C)s1` [Example I-103, 2-(tert-butyl)-N-((2-methyl-6-(2-((1-methyl-1H-pyrazol-4-yl)amino)pyrimidin-4-yl)pyridin-3-yl)methyl)thiazole-5-carboxamide]: 0.01 to 0.099 µM; for `Cc1cc(-c2ccnc(Nc3cnn(C)c3)n2)ccc1C(C)NC(=O)c1cc2c(s1)CCOC2` (stereo not shown) [Example I-105, N-(1-(2-methyl-4-(2-((1-methyl-1H-pyrazol-4-yl)amino)pyrimidin-4-yl)phenyl)ethyl)-6,7-dihydro-4H-thieno[3,2-c]pyran-2-carboxamide]: 0.01 to 0.099 µM.
With `CCNc1nccc(-c2ccc(CNC(=O)c3cnc(C(C)(C)C)s3)c(C)c2)n1` [Example I-34, 2-(tert-butyl)-N-(4-(2-(ethylamino)pyrimidin-4-yl)-2-methylbenzyl)thiazole-5-carboxamide] the figure was 0.01 to 0.099 µM.
With `Cc1cc(-c2ccnc(N)n2)ccc1CNC(=O)c1cc2n(n1)CCNC2` [Example I-76, N-(4-(2-aminopyrimidin-4-yl)-2-methylbenzyl)-4,5,6,7-tetrahydro pyrazolo[1,5-a]pyrazine-2-carboxamide] the figure was > 10 µM; with `Cc1cc(-c2ccnc(N)n2)ccc1CNC(=O)c1cncs1` [Example I-84, N-(4-(2-aminopyrimidin-4-yl)-2-methylbenzyl)thiazole-5-carboxamide], 1 to 10 µM; with `CC(C)(C)c1ncc(C(=O)NC2CCCc3cc(-c4ccnc(N)n4)ccc32)s1` (stereo not shown) [Example I-136, N-(6-(2-aminopyrimidin-4-yl)-1,2,3,4-tetrahydronaphthalen-1-yl)-2-(tert-butyl)thiazole-5-carboxamide], 0.01 to 0.099 µM.
`Cc1cc(-c2ccnc(N)n2)ccc1CNC(=O)c1cc2c(s1)CNCC2` [Example I-82, N-(4-(2-aminopyrimidin-4-yl)-2-methylbenzyl)-4,5,6,7-tetrahydrothieno[2,3-c]pyridine-2-carboxamide]: the IC50 was 0.1 to 0.999 µM.
With `Cc1cc(-c2ccnc(N)n2)ccc1C(C)NC(=O)c1cnc(C(F)(F)F)s1` (stereo not shown) [Example I-107, N-(1-(4-(2-aminopyrimidin-4-yl)-2-methylphenyl)ethyl)-2-(trifluoromethyl)thiazole-5-carboxamide] the figure was 1 to 10 µM; with `Cc1cc(-c2ccnc(Nc3cnn(C)c3)n2)ccc1CNC(=O)C1CCN(C)CC1` [Example I-16, 1-methyl-N-(2-methyl-4-(2-((1-methyl-1H-pyrazol-4-yl)amino)pyrimidin-4-yl)benzyl)piperidine-4-carboxamide], > 10 µM; with `Cc1cc(-c2ccnc(Nc3cnn(C)c3)n2)ccc1CNC(=O)[C@H]1CC[C@@H](C(F)(F)F)CC1` [Example I-17, cis-N-(2-methyl-4-(2-((1-methyl-1H-pyrazol-4-yl)amino)pyrimidin-4-yl)benzyl)-4-(trifluoromethyl)cyclohexanecarboxamide], 0.1 to 0.999 µM.
The same measure for `Cn1cc(Nc2nccc(-c3ccc4c(c3)COCC4NC(=O)c3cnc(C(C)(C)C)s3)n2)cn1` (stereo not shown) [Example I-98, 2-(tert-butyl)-N-(7-(2-((1-methyl-1H-pyrazol-4-yl)amino)pyrimidin-4-yl)isochroman-4-yl)thiazole-5-carboxamide]: 0.01 to 0.099 µM.
With `CN1CCN(c2ccc(Nc3nccc(-c4ccc5c(c4)CCCC5NC(=O)c4cnc(C(C)(C)C)s4)n3)nc2)CC1` (stereo not shown) [Example I-96, 2-(tert-butyl)-N-(6-(2-((5-(4-methylpiperazin-1-yl)pyridin-2-yl)amino)pyrimidin-4-yl)-1,2,3,4-tetrahydronaphthalen-1-yl)thiazole-5-carboxamide] the figure was 0.01 to 0.099 µM; with `Cc1cc(-c2nc(Nc3cnn(C)c3)ncc2C)ccc1CNC(=O)c1cnc(C(C)(C)C)s1` [Example I-112, 2-(tert-butyl)-N-(2-methyl-4-(5-methyl-2-((1-methyl-1H-pyrazol-4-yl)amino)pyrimidin-4-yl)benzyl)thiazole-5-carboxamide], < 0.01 µM; with `CN1CCn2nc(Nc3cc(-c4ccc5c(c4)CCCC5NC(=O)c4cnc(C(C)(C)C)s4)ncn3)cc2C1` (stereo not shown) [Example I-134, 2-(tert-butyl)-N-(6-(6-((5-methyl-4,5,6,7-tetrahydropyrazolo[1,5-a]pyrazin-2-yl)amino)pyrimidin-4-yl)-1,2,3,4-tetrahydronaphthalen-1-yl)thiazole-5-carboxamide], < 0.01 µM.
With `CNCc1cc(-c2ccnc(N)n2)ccc1CNC(=O)c1cc2c(s1)CCCC2` [Example I-145, N-(4-(2-aminopyrimidin-4-yl)-2-((methylamino)methyl)benzyl)-4,5,6,7-tetrahydrobenzo[b]thiophene-2-carboxamide], the IC50 is 0.1 to 0.999 µM.
The same measure for `Nc1nccc(-c2ccc3c(c2)CCCC3NC(=O)c2cc3c(s2)CCCC3)n1` (stereo not shown) [Example I-137, N-(6-(2-aminopyrimidin-4-yl)-1,2,3,4-tetrahydronaphthalen-1-yl)-4,5,6,7-tetrahydrobenzo[b]thiophene-2-carboxamide]: < 0.01 µM.
The same measure for `Cc1cc(-c2ccnc(Nc3cnn(C)c3)n2)cnc1CNC(=O)c1cc2c(s1)CCOC2` [Example I-101, N-((3-methyl-5-(2-((1-methyl-1H-pyrazol-4-yl)amino)pyrimidin-4-yl)pyridin-2-yl)methyl)-6,7-dihydro-4H-thieno[3,2-c]pyran-2-carboxamide]: 0.01 to 0.099 µM.
Turning to `Cc1cc(-c2ccnc(N)n2)ccc1CNC(=O)c1nc2c(s1)CCNCC2` [Example I-73, N-(4-(2-aminopyrimidin-4-yl)-2-methylbenzyl)-5,6,7,8-tetrahydro-4H-thiazolo[4,5-d]azepine-2-carboxamide], the IC50 lay within 1 to 10 µM.
